Target: Tyrosine-protein kinase JAK1 (Homo sapiens, UniProt P23458)
Assay: JAK1 Assay: As used herein, a selective JAK1 inhibitor is an inhibitor of JAK1 which is selective for JAK1 over JAK2, JAK3 and TYK2. In some embodiments, the compounds or salts are about 10-fold more selective for JAK1 over JAK2. In some embodiments, the compounds or salts are about 10-fold, about 15-fold, or about 20-fold more selective for JAK1 over JAK2 as calculated by measuring IC50 at 1 mM …

Chain of Tyrosine-protein kinase JAK1 (P23458 whole entry): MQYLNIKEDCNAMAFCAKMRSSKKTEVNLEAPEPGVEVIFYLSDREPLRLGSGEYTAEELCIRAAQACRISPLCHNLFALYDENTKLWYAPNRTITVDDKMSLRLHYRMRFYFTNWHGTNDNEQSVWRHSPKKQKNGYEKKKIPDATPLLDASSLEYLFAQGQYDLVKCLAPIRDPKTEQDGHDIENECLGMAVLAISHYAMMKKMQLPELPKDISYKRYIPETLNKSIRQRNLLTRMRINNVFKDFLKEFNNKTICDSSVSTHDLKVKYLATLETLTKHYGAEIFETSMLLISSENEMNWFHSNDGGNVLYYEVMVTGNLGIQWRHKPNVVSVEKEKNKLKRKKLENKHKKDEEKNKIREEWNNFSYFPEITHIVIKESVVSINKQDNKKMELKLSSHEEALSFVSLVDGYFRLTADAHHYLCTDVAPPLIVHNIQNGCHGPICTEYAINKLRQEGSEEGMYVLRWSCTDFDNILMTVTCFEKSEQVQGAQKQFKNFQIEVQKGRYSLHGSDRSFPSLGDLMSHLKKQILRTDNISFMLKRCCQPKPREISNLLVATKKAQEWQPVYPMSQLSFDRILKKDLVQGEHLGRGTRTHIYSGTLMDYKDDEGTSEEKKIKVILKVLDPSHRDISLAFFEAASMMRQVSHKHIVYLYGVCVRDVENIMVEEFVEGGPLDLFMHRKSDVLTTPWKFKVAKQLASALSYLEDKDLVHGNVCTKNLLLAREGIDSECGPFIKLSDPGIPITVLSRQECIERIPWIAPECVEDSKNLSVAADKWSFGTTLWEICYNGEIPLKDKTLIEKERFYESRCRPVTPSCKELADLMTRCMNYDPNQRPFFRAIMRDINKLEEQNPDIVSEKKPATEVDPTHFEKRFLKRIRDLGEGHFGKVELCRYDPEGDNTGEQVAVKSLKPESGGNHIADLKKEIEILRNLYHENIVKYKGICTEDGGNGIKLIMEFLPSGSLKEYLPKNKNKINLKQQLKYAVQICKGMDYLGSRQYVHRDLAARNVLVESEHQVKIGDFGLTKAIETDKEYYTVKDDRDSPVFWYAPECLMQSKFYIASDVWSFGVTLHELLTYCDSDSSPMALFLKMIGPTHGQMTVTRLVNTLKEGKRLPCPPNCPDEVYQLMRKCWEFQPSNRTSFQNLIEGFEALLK

| Structure (SMILES) | IC50 [nM] |
| --- | --- |
| N#CCC1(n2cc(-c3ncnc4[nH]ccc34)cn2)CN(C2CCN(C(=O)Nc3ccc(F)cc3C(F)(F)F)CC2)C1 | < 10 |
| N#CCC1(n2cc(-c3ncnc4[nH]ccc34)cn2)CN(C2CCN(C(=O)c3ccnc(C(F)(F)F)n3)CC2)C1 | < 10 |
| N#CC[C@]1(n2cc(-c3ncnc4[nH]ccc34)cn2)C[C@H](N2CCC(Oc3cc(CN4CC(O)C4)cc(C(F)(F)F)n3)CC2)C1 | < 10 |
| N#CCC(C1CCN(c2nc3cccnc3o2)C1)n1cc(-c2ncnc3[nH]ccc23)cn1 (stereo unspecified) | < 10 |
| N#CC[C@]1(n2cc(-c3ncnc4[nH]ccc34)cn2)C[C@H](N2CCN(C(=O)c3ccnc(C(F)(F)F)n3)CC2)C1 | < 10 |
| CCNCc1cc(O[C@H]2CC[C@@H](N3CC(CC#N)(n4cc(-c5ncnc6[nH]ccc56)cn4)C3)CC2)nc(C(F)(F)F)c1 | < 10 |
| C[C@H](O)CNCc1cc(OC2CCN([C@H]3C[C@](CC#N)(n4cc(-c5ncnc6[nH]ccc56)cn4)C3)CC2)nc(C(F)(F)F)c1 | < 10 |
| N#CCC(CN1CCN(C(=O)c2ccc(C#N)cc2F)CC1)n1ccc(-c2ncnc3[nH]ccc23)c1 (stereo unspecified) | < 10 |
| N#CCC1(n2cc(-c3ncnc4[nH]ccc34)cn2)CN([C@H]2CC[C@@H](Oc3cc(CCO)nc(C(F)(F)F)n3)CC2)C1 | < 10 |
| N#CC[C@]1(n2cc(-c3ncnc4[nH]ccc34)cn2)C[C@H](N2CCC(Oc3cc(CCO)cc(C(F)(F)F)n3)CC2)C1 | < 10 |
| CC(C)(O)c1cc(O[C@H]2CC[C@@H](N3CC(CC#N)(n4cc(-c5ncnc6[nH]ccc56)cn4)C3)CC2)nc(C(F)(F)F)c1 | < 10 |
| C[C@@H](CO)NCc1cc(OC2CCN([C@H]3C[C@](CC#N)(n4cc(-c5ncnc6[nH]ccc56)cn4)C3)CC2)nc(C(F)(F)F)c1 | < 10 |
| C[C@@H](O)c1nc2cnc3ccsc3c2n1[C@H]1CC[C@H](CC#N)OC1 | < 100 |
| C[C@@H](O)CNCc1cc(OC2CCN([C@H]3C[C@](CC#N)(n4cc(-c5ncnc6[nH]ccc56)cn4)C3)CC2)nc(C(F)(F)F)c1 | < 10 |
| C[C@H](NC(=O)c1cc(F)c(N2CC(CC#N)(n3cc(-c4ncnc5[nH]ccc45)cn3)C2)cc1F)C(F)(F)F | < 10 |
| N#CC[C@]1(n2cc(-c3ncnc4[nH]ccc34)cn2)C[C@H](N2CCC(Oc3cc(CN4CCC[C@H]4CO)cc(C(F)(F)F)n3)CC2)C1 | < 10 |
| N#CCC1(n2cc(-c3ncnc4[nH]ccc34)cn2)CN([C@H]2CC[C@@H](Oc3cc(CN4CC[C@@H](O)C4)cc(C(F)(F)F)n3)CC2)C1 | < 10 |
| N#CCC1(n2cc(-c3ncnc4[nH]ccc34)cn2)CN([C@H]2CC[C@@H](Oc3cc(CN4CC[C@H](O)C4)cc(C(F)(F)F)n3)CC2)C1 (single isomer, unassigned) | < 10 |
| N#CCC(C1CCN(c2cccc(Cl)n2)C1)n1cc(-c2ncnc3[nH]ccc23)cn1 (single isomer, unassigned) | < 10 |
| N#CCC1(n2cc(-c3ncnc4[nH]ccc34)cn2)CN(C2CCN(C(=O)c3ccnc(C(F)(F)F)c3F)CC2)C1 [ITACITINIB] | < 10 |

Target: T1, Phosphatidylinositol 4,5-bisphosphate 3-kinase catalytic subunit delta isoform (Homo sapiens, UniProt O00329)
T1 sequence (O00329 whole entry): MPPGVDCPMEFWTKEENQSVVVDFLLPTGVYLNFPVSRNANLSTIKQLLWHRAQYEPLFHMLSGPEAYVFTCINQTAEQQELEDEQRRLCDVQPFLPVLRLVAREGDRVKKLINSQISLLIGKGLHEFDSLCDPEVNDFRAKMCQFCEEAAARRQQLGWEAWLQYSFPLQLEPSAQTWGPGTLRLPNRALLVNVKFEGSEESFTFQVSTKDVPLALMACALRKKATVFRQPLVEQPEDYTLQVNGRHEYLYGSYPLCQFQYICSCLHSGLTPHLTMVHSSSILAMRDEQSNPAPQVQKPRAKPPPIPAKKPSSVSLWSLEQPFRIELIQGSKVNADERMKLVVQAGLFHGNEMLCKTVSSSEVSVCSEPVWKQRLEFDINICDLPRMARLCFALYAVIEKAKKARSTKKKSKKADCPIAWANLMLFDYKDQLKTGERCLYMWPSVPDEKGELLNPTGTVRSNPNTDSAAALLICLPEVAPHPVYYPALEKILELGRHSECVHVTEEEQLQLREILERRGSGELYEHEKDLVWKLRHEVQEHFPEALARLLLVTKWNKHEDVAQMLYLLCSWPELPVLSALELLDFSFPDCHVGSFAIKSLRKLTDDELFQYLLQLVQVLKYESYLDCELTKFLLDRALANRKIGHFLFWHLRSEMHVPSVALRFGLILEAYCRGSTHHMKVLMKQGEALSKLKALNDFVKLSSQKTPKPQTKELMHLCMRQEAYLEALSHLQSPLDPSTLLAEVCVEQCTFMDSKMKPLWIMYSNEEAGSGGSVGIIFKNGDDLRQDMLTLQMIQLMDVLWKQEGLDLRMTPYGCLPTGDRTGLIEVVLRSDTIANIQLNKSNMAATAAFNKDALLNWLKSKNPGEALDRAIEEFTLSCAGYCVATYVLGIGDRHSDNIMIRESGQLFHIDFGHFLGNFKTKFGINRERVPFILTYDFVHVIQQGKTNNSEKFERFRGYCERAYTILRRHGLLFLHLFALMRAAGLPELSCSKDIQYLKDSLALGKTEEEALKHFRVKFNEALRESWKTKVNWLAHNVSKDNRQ
Assay: PI3K Delta Assay: In some embodiments, the PI3Kδ inhibitor is selective. By ¿selective¿ is meant that the compound binds to or inhibits a kinase with greater affinity or potency, respectively, compared to at least one other kinase. In some embodiments, the PI3Kδ inhibitors are selective inhibitors of PI3Kδ (e.g., over PI3Kα, PI3Kβ and PI3Kγ). In some embodiments, selectivity can be at least about 2-fold, 5-fold, 10-fold, at least about 20-fold, at least about 50-fold, at least about 100-fold, at least about 200-fold, at least about 500-fold or at least about 1000-fold. Selectivity can be measured by methods routine in the art. In some embodiments, selectivity can be tested at the Km ATP concentration of each enzyme. In some embodiments, the selectivity of compounds described herein can be determined by cellular assays associated with particular PI3K kinase activity.

| Structure (SMILES) | IC50 [nM] |
| --- | --- |
| CCOc1c(C(C)n2nc(C)c3c(N)ncnc32)cc(C)c(C#N)c1-c1ccc(C(=O)N(C)C)nc1 (stereo unspecified) | < 50 |
